In the case of `Cn1ncc2c1-c1c(Oc3ccc(OC(F)(F)F)cc3)sc(C(N)=O)c1CC2` [compound 7, 4,5-Dihydro-1-methyl-8-(4-trifluoromethoxyphenoxy)-1H-thieno[3,4-g]indazole-6-carboxamide], the melting point (as a rule, the temperature of the solid-liquid transition) was in the range of 212 to 213 °C.
In the case of `Cn1ncc2c1-c1c(Oc3ccc(OCc4ccncc4)cc3)sc(C(N)=O)c1CC2` [compound 14, 4,5-Dihydro-1-methyl-8-[4-(4-pyridylmethyloxy)phenoxy]-1H-thieno[3,4-g]indazole-6-carboxamide], the melting point lay within 249 to 250 °C.
As for `COc1ccc(Oc2sc(C(N)=O)c3c2-c2c(cnn2C)CC3)cc1` [compound 6, 4,5-Dihydro-1-methyl-8-(4-methoxyphenoxy)-1H-thieno[3,4-g]indazole-6-carboxamide], the melting point lay in the range of 203 to 205 °C.
`Cc1cccc(Oc2sc(C(N)=O)c3c2-c2c(cnn2CC(F)(F)F)CC3)c1C` [compound 9, 4,5-Dihydro-8-(2,3-dimethylphenoxy)-1-(2,2,2-trifluoroethyl)-1H-thieno[3,4-g]indazole-6-carboxamide] registered a melting point of 190 to 191 °C.
The compound `Cn1ncc2c1-c1c(Oc3ccc(F)cc3)sc(C(N)=O)c1CC2` [compound 15, 4,5-Dihydro-1-methyl-8-(4-fluorophenoxy)-1H-thieno[3,4-g]indazole-6-carboxamide] displayed a melting point of 188 to 189 °C.
As for `Cn1ncc2c1-c1c(Oc3ccc4c(c3)OCO4)sc(C(N)=O)c1CC2` [Reference Example 4, 4,5-Dihydro-1-methyl-8-(3,4-methylenedioxyphenoxy)-1H-thieno[3,4-g]indazole-6-carboxamide], the melting point fell in the range of 204 to 205 °C.
Compound `Cn1ncc2c1-c1c(Oc3ccc(OCc4ccccc4)cc3)sc(C(N)=O)c1CC2` [compound 5, 8-(4-Benzyloxyphenoxy)-4,5-dihydro-1-methyl-1H-thieno[3,4-g]indazole-6-carboxamide] had a melting point of 200 to 201 °C.
